In ChEMBL document CHEMBL3351784, “Synthesis and evaluation of anti-inflammatory activity of derivatives of the marine natural products fuscol and eunicol” (Bioorg Med Chem Lett, 2014) one finds Activity data, which are given here for 8 molecules.

Data set [1] deals with Mus musculus. As to the kind of experiment: Antiinflammatory activity in mouse assessed as reduction in PMA-induced ear edema at 0.1 mg/ear administered topically measured after 24 hrs relative to control. Details: scale not given: the % may be the effect or the level left. It counts as functional.
In data set [2] the test system is Mus musculus. The experiment in a line: Toxicity in mouse at 0.1 mg/ear administered topically. It is filed as organism-based. As to conditions: in vivo, topical_or_ocular.
Data set [3] deals with Mus musculus. The experiment in a line: Antiinflammatory activity in mouse assessed as reduction in PMA-induced ear edema at 3 mg/ear administered topically relative to control. It is filed as functional. Also noted: scale not given: the % may be the effect or the level left.

Regarding `C/C(=C\C=C\C(C)(C)O)C(C)C`, the Activity in data set [1] is 80%; in data set [2], “Non-toxic”.
For `C/C(=C\C=C\C(C)(C)O)C1CCCCC1`, the figures for the Activity in data set [1] and in data set [2] were 62% and “Non-toxic”, respectively.
The like results for `C/C(=C\C=C\C(C)(C)O)c1ccccc1` were, in that order, 0% and “Non-toxic”.
`CC1=CCC(/C(C)=C/C=C/C(C)(C)O)CC1` (stereo not given): the Activity in data set [1] was 58%; in data set [2], “Non-toxic”.
`C/C(=C\C=C\C(C)(C)O)C1CC[C@@H](C)C[C@H]1O` (stereo not given in full): the Activity in data set [1] is given as 71%; in data set [2], “Non-toxic”.
In the case of `C/C(=C\C=C\C(C)(C)O)C1CCc2ccccc2C1` (stereo not given), the Activity in data set [1] is recorded as 58%; in data set [2], “Non-toxic”.
As to `C=C[C@@]1(C)CC[C@H](/C(C)=C/C=C/C(C)(C)O)C[C@@H]1C(=C)C` [FUSCOL], the Activity in data set [1] is given as 46%; in data set [2], “Non-toxic”.
Take `COc1ccc2c(c1)c(CC(=O)O)c(C)n2C(=O)c1ccc(Cl)cc1` [INDOMETHACIN]: in data set [3], the Activity is reported as 51%.
